From article PMC4601023, “Novel anticancer agent, SQAP, binds to focal adhesion kinase and modulates its activity” (Scientific Reports, 2015)

Key:
[1] = tested on: FAK phosphorylation (Y397, Y925) in A549 cells; test: FAK phosphorylation level in A549, Western blotting; type: cell-based, human; conditions: A549, fibronectin 10 μg/mL, 1 h treatment
Method: A549 cells were incubated in a serum-free medium for 48 h in 60 mm dishes (IWAKI, Tokyo, Japan). Then 10 μM SQAP, SQMG or SQP was added and incubated for 30 min followed by addition of fibronectin 10 μg/mL (Sigma, St. Louis, MI, USA) and incubation for another 30 min. FAK phosphorylation level was analyzed by Western blotting as described in the next section.
Cells were harvested and solubilized in RIPA buffer (20 mM Tris-HCl, pH 7.5, 1% Sodium deoxycholate, 150 mM NaCl, 5 mM EDTA, 1% Triton X-100, 0.1% SDS, 0.1%, 1 mM PMSF, 1 mM vanadate and 1 μg/mL leupeptin). Protein quantification was determined using the DC protein assay kit (Bio-Rad, Hercules, CA, USA). A total of 15 μg of each protein sample were separated by SDS–PAGE gels and blotted onto polyvinylidene difluoride membranes (Merck, Kenilworth, NJ, US). After blocking for 1 h with Blocking-One (Nacalai Tesque, Kyoto, Japan), proteins were detected by incubating the membranes with the primary antibody at 4 °C overnight (anti-Y397 2:2000, anti-Y925 5:2000 and anti-FAK 0.5:2000) followed by incubation with horseradish peroxidase-conjugated secondary antibodies at room temperature for 1 h (anti-mouse 0.5:2000 and anti-rabbit 0.4:2000).

MFE-2 (598–736) = target: T1, MFE-2 (598–736) (Homo sapiens, UniProt P51659); test: SPR analysis, immobilized His-tagged MFE-2 (598-736); type: binding; conditions: Biacore 3000, CM5 chip, 25 °C, read-out: dissociation constant (KD) for MFE-2
T1 construct: For MFE-2 (598–736) DNA was amplified; made in house; host or cells: E. coli Rosetta 2 (DE3) pLysS
T1 sequence (P51659 598-736): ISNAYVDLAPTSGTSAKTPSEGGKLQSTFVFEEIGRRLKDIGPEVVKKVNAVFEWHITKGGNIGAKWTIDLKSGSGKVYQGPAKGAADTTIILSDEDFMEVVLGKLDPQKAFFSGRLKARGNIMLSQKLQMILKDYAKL
Text: (§1) SPR was utilized as an independent confirmation of the kinetic parameters between SQAP and the putative binding proteins. […] The recombinant proteins were then expressed in Escherichia coli and purified to homogeneity. In addition, full length, His-tagged ADRM1 and GST-tagged HR23B (GST-HR23B) were also used. The proteins were first immobilized on a CM5 sensor chip of the SPR biosensor (Biacore 3000). For GST-HR23B analysis, a GST protein was additionally immobilized and used as a control in order to eliminate possible nonspecific binding of SQAP. SQAP samples at different concentrations were then injected over the proteins immobilized on the sensor chip. As a negative control we used sulfoquynovosylpropanediol (SQP), which lacks the fatty acid moiety of SQAP (Fig. 1). […]
(§2) The binding kinetics of SCP-2, MFE-2, ADRM1, HR23B and FAK with SQAP and SQP were analyzed on a Biacore 3000 instrument (GE Healthcare, Little Chalfont, UK). […] The buffer of purified peptides was exchanged to HBS-P (150 mM NaCl, 0.005% Surfactant P20, 10 mM HEPES-NaOH pH 7.4) using a PD 10 column (GE Healthcare, Little Chalfont, UK) and the concentrations were quantified using DC protein assay kit (Bio-Rad Laboratories, Hercules, CA, USA). […] Kinetic parameters were determined by analyzing the data using BIAevaluation 4.1 software (GE Healthcare, Little Chalfont, UK).

ADRM1 = target: T2, ADRM1 (Homo sapiens, UniProt Q16186); test: SPR analysis, immobilized full length His-ADRM1; type: binding; conditions: Biacore 3000, CM5 chip, 25 °C, read-out: dissociation constant (KD) for ADRM1
T2 construct: ADRM1 and HR23B human full length proteins were purchased; His-tag; purchased ATgen (Gyeonggi-do, Korea)
T2 sequence (Q16186 whole entry): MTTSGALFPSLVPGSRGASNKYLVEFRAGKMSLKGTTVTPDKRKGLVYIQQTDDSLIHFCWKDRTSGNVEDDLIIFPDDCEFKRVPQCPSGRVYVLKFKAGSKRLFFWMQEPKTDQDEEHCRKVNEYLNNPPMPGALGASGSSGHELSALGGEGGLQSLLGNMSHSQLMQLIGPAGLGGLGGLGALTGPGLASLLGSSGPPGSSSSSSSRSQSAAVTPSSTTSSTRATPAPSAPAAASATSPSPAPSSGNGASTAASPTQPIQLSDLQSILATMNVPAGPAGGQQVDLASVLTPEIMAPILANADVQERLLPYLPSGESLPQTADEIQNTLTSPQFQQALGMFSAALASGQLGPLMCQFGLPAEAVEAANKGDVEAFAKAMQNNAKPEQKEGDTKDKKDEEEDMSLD
Text: as §1, §2

A549 cells = test: WST-8 cell viability assay, A549; type: cell-based, human; conditions: A549, 46 h, SQAP 10 and 20 µM
Method: HUVEC and A549 cells were seeded into a 96-well culture plate (2 × 10^4 cells/well). The following day, cells were treated with SQAP or vehicle in a medium containing 1% FBS and VEGF (50 ng/mL) for 17 h (HUVEC) or fibronectin (10 μg/mL) for 46 h (A549). Cell viability was measured using Cell Count Reagent SF (Nacalai Tesque, Kyoto, Japan) following the manufacturer’s instructions. Briefly, 1/10 volume of the WST-8 solution was added to each well, and the plates were incubated at 37 °C for 1 h. Then, cell viability was determined colorimetrically by measuring OD450 using a microplate reader on a Wallac ARVO 5X microplate reader (Perkin Elmer, Waltham, MA, USA).
control SQAP 10 µM SQAP 20 µM
Livecellswere measured with SF reagent under similarconditionsas describedin thewound healing
assayinFig.5. (A)HUVEC and (B)A549 cells.
(also on this page, place not known: Cell viability (%) Cell viability (%) Live cells were similar conditions as described in the wound assay in Fig. 5. (A) HUVEC (B) A549)

Kd (MFE-2 (598–736)): 14.2 µM
Kd (ADRM1): 9.65 µM
SMILES: CCCCCCCCCCCCCCCCCC(=O)OCCCO[C@H]1O[C@H](CS(=O)(=O)O)[C@@H](O)[C@H](O)[C@H]1O [SQAP, sulfoquynovosylacylpropanediol]
phosphorylation of FAK at Y397 and Y925 [1]: could inhibit
cytotoxicity (WST-8 cell viability) (A549 cells): noncytotoxic
